Here are results for eight molecules from patent US10174339B2 (priority 2011, dated 2019).

Test [1] relates to Fusarium graminearum. The format is cell-based.
For a further test, the system named is Fusarium verticilloides. The format is cell-based. The conditions noted are these: 3.25 ppm.
Test [2] concerns Colletotrichum graminicola. The format is cell-based. Particulars: 13 ppm.
A further test relates to C. gattii. The format is cell-based, Cryptococcus gattii.
Test [3] concerns Fusarium graminearum. The format is cell-based. The conditions noted are these: for inhibition of growth of F. graminearum, more than NaD1: 0.825 ppm; for IC50: read-out: IC50 against Fusarium graminearum (Fgr).
In test [4] the test system is Cryptococcus neoformans (C1065). The format is cell-based. The conditions noted are these: 13 ppm.
A further test has as its system Aspergillus niger. The format is cell-based.
The next test relates to C. neoformans (C2067). The format is cell-based, Cryptococcus neoformans. Particulars: 6.5 ppm.
In test [5] the test system is Colletotrichum graminicola. In words: Transgenic corn leaf sheath bioassay, lesion area, C. graminicola. Particulars: in vivo.
Test [6] relates to Colletotrichum graminicola. The format is cell-based.
Test [7] deals with Asian soybean rust (Phakopsora pachirhizi). The format is cell-based. The conditions noted are these: 10 ppm.
The subject of test [8] is Fusarium graminearum. The conditions noted are these: in vivo.

Values joined by “and” are separate entries in the source; they are usually repeats but may differ in a detail not shown here. Identical values can stand only once. Like-named read-outs stand apart in the source and are kept apart here. Ends that are not written are not given here.

As to “HXP4: NaD2 Loop 1B (HRFKGP) in NaD1 backbone, SEQ ID NO:39 (RECKTESHRFKGPCITKPPCRKACISEKFTDGHCSKILRRCLCTKPC; ends and bridges not checked; cysteine pairing not given here)”, in the test with Fusarium graminearum [1], the “synergistic effect with protease inhibitors against Fusarium graminearum” value is on record as “greater synergistic effect with protease inhibitors than NaD1”. The “inhibition of growth of F. verticilloides, more than NaD1” value in the test with Fusarium verticilloides is 40.9%. Further, in [2], the “inhibition of growth of C. graminicola, more than NaD1” value is 61.3%. In the test on C. gattii (6.5 ppm), the “inhibition of growth of C. gatti, more than NaD1” value stood at 38%. Also, the “inhibition of growth of C. gatti, more than NaD1” value in the test on C. gattii (13 ppm) is given as 10%. The “inhibition of growth of F. graminearum, more than NaD1” value in the test with Fusarium graminearum [3] came to 41.7%. Further, in test [4], the “activity as percent of the activity of NaD1, C. neoformans (C1065)” value is “more than 596%” and the “inhibition of growth of Cryptococcus neoformans (C1065)” value was “completely inhibited”. For the same molecule, in the test with Aspergillus niger (13 ppm), the “activity expressed as percent of NaD1, A. niger” value was “greater than 112%” and the “inhibition of growth of A. niger, more than NaD1” value (from here on “inhibition of growth of A. niger”) is 20.6%. Besides, the “inhibition of growth of A. niger” value with Aspergillus niger (26 ppm) was “at least 10%”. Also, the “inhibition of growth of A. niger” value with Aspergillus niger (53 ppm) is reported as “at least 10%”. The “inhibition of growth of C. neoformans (C2067)” value with C. neoformans (C2067) is reported as “more than 80%”. Also, the “Percent inhibition relative of empty vector control (reduction in lesion area), Cgr” value in [5] came out at 26%. Also, the “synergy with protease inhibitors against Colletotrichum graminicola” value in [6] is recorded as “synergistic with protease inhibitors”. In test [7] (24 hours), the “inhibition of appresorium formation, more than NaD1” value came out at 65% and the “inhibition of germination of Asian soybean rust, more than NaD1” value is 62%. Besides, in [7] (48 hours), the “inhibition of formation of post-appresorium structures, more than NaD1” value came to 59%.
Consider “HXP34: Zea2 Loop 1B (QHHSFP) in NaD1 backbone, SEQ ID NO:40 (RECKTESQHHSFPCITKPPCRKACISEKFTDGHCSKILRRCLCTKPC; ends and bridges not checked; cysteine pairing not given here)”, for which the “inhibition of growth of F. verticilloides, more than NaD1” value with Fusarium verticilloides came to 29.4%. For the same molecule, the “inhibition of growth of C. graminicola, more than NaD1” value in test [2] is 21.8%. Besides, the “inhibition of growth of F. graminearum, more than NaD1” value in the test with Fusarium graminearum [3] amounted to 14.6%.
For the molecule “HXP35: PSD1 Loop 1B (DTYRGV) in NaD1 backbone, SEQ ID NO:41 (RECKTESDTYRGVCITKPPCRKACISEKFTDGHCSKILRRCLCTKPC; ends and bridges not checked; cysteine pairing not given here)”, the “inhibition of growth of F. verticilloides, more than NaD1” value with Fusarium verticilloides turned out to be 5.1%. Further, in [2], the “inhibition of growth of C. graminicola, more than NaD1” value worked out at 83.2%. Further, in the test with Fusarium graminearum [3], the “inhibition of growth of F. graminearum, more than NaD1” value is 34.5%.
The IC50 is the concentration needed to halve the response being measured. For “HXP107: NaD2 Loop 1B in TPP3 backbone, SEQ ID NO:85 (QQICKAPSHRFKGPCFMDSSCRKYCIKEKFTGGHCSKLQRKCLCTKPC; Synthetic construct TPP3 backbone with NaD2 Loop 1B)”, in the test on Fusarium graminearum [3], the IC50 was 500 nM.
Still for that read-out and setting: under “TPP3: Class II solanaceous defensin (Solanum lycopersicum), SEQ ID NO:5, parent protein of HXP107 (QQICKAPSQTFPGLCFMDSSCRKYCIKEKFTGGHCSKLQRKCLCTKPC; Synthetic construct Amino acid sequence of portion of TPP3 (Solanum lycopersicum) containing Loop 1B) [reference compound]” stands 200 nM.

B1: CI-1B: barley type-I inhibitor, recombinant (protein)
chain: MRSMEGSVPKYPEPTEGSIGASGAKRSWPEVVGMSAEKAKEIILRDKPDAQIEVIPVDAMVPLDFNPNRIFILVAVARTPTVG
modifications: Synthetic construct Amino acid sequence of CI-1B
Turning to B1, the “Ee, expected effect from the additive response (Limpel's formula)” value in the test on Fusarium graminearum [1] was 12.1 percent inhibition and 17.1 percent inhibition.

B2: NaPin1A: Nicotiana alata type I proteinase inhibitor (protein)
chain: QSGCPGVTKERWPELLGTPAKFAMQIIQKENPKLTNVQTILNGRPVTEDLRCNRVRLFVNVLDFVVQTPQVG
modifications: Synthetic construct Amino acid sequence of NaPin1A
On to B2, for which, in test [6], the “Ee, expected effect from the additive response (Limpel's formula)” value came to 11.8 percent inhibition and the “Io, percent inhibition observed” value came to 69.3 percent inhibition.

B3: HXP4 + HvCPI6: barley cystatin HvCPI6 and modified defensin HXP4 co-expressed from one construct in corn, SEQ ID NO:83 (protein)
chain: MANKHLSLSLFLVLLGLSASLASGATSALGRRGVLLGGWSPVKDVNDPHVQELGGWAVAQHASLAKDGLLFRRVTRGEQQVVSGMNYRLFVVAADGSGKRVTYLAQIYEHWSRTRKLTSFKPAAGGEEKKNRECKTESNTFPGICITKPPCRKACISEKFTDGHCSKILRRCLCTKPCVFDEKMTKTGAEILAEEAKTLAAALLEEEIMDN
modifications: Synthetic construct Amino acid sequence of HvCPI6-L-HXP4-CTPP
For B3, the “Percent inhibition relative of empty vector control (reduction in lesion area), Fgr” value in the test on Fusarium graminearum [8] is 45%.
